Data: patent US20170172929A1, “PHARMACEUTICAL COMPOSITION CONTAINING PREGABALIN WITH IMPROVED STABILITY AND METHOD FOR PREPARING SAME” (Yungjin Pharm. Co., Ltd., priority 2014, published 2017)
Like-named read-outs stand apart in the source and are kept apart here.

What was measured:
[1] = severe conditions (60°C), airtight glass vial, excipient mixed 1:1
Experimental: 1 g of pregabalin and each 1 g of the excipients given in Table 14 were mixed at room temperature, and the mixture in the form of powder was air-tightened in a glass vial, and this vial was stored under severe conditions (60° C.) for 2 weeks, and then a percentage (%) of lactam related compounds (PRG-Lactam) relative to the main peak was calculated by HPLC. The analysis wavelength was 210 nm, a mixture (0.04 M ammonium phosphate ((NH4)2HPO4) buffer solution:acetonitrile:methanol=84:5:11) containing 5 mM sodium 1-octanesulfonate used as a mobile phase A, and acetonitrile was used as a mobile phase B. The mobile phase A was maintained at 100% for initial 6 minutes, and the m phase A was maintained from 100% to 70% and the mobile phase B was maintained from 0% to 30% for 6˜45 minutes, and then the mobile phase A was maintained at 70% and the mobile phase B was maintained at 0% for 45˜50 minutes. Post time was 10 minutes. A flow rate was adjusted (0.9 min/mL) so that a retention time of pregabalin was about 8 minutes. A column was a stainless steel column having an internal diameter of about 4.6 mm and a length of about 250 mm, packed with 5 μm-octadecylsilyl silica gel for liquid chromatography.

[2] = cited from earlier work

## CC(C)C[C@H](CN)CC(=O)O [Pregabalin, (S)-3-(aminomethyl)-5-methylhexanoic acid]
[1]; 0 weeks
  % of Peak area of PRG-Lactam relative to peak area of pregabalin: 0.074%
[1]; 1 week
  % of Peak area of PRG-Lactam relative to peak area of pregabalin: 0.196%
[1]; 2 weeks
  % of Peak area of PRG-Lactam relative to peak area of pregabalin: 0.329%
[2]; after administration
  Time to steady-state blood levels: 24˜48 hours
[2]; in vivo
  Average absorption time: 6 h
[2]; normal person
  Half-life: about 6 hours
[2]; oral immediate release
  Time to reach peak blood levels: ≤ 1.5 h
